The values that follow come from publication PMC12697290, “Identification of novel PTP1B inhibitor for the treatment of LPS-induced myocardial apoptosis: machine learning based virtual screening and biological evaluation” (Journal of Enzyme Inhibition and Medicinal Chemistry, 2025).

Bounds are passed on as bounds.

Assay [1] concerns the target T1, PTP1B (Homo sapiens, UniProt P18031).
T1 sequence (P18031 1-435): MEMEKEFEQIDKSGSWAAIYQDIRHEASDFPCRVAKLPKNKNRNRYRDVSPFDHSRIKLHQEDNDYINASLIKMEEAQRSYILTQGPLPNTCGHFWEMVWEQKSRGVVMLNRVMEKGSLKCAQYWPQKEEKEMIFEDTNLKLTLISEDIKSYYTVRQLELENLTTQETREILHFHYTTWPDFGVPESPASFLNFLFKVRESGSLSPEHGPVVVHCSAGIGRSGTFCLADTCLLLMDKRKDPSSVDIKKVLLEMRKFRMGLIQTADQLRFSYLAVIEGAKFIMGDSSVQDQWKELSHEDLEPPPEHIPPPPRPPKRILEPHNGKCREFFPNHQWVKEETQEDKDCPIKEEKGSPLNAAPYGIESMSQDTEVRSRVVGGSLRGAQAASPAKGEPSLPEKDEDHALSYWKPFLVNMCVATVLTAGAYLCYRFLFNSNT
Briefly: pNPP hydrolysis, absorbance at […] nm. Type of assay: biochemical. Also noted: gene PTPN1; isolated enzyme. The note with it: 5 mM pNPP, 50 mM Hepes, 1 mM DTT, pH 7.0, 37 °C; 10 μM compound.

The target of assay [2] is T1, PTP1B. Nature of the assay: pNPP hydrolysis, absorbance at […] nm. Type of assay: biochemical. On the set-up: gene PTPN1; isolated enzyme.
Assay [3] deals with T1, PTP1B. Nature of the assay: cellular thermal shift assay (CETSA), Western blot. The note with it: AC16 cells. On the set-up: gene PTPN1; endogenous protein in AC16 human cardiomyocytes, detected by Western blot (antibody 11334-1-AP). Type of assay: cell-based. On the technique in general: A western blot detects proteins with antibodies after separation by electrophoresis.
Assay [4] concerns the target T2, TCPTP (Homo sapiens, UniProt P17706).
T2 sequence (P17706 1-415): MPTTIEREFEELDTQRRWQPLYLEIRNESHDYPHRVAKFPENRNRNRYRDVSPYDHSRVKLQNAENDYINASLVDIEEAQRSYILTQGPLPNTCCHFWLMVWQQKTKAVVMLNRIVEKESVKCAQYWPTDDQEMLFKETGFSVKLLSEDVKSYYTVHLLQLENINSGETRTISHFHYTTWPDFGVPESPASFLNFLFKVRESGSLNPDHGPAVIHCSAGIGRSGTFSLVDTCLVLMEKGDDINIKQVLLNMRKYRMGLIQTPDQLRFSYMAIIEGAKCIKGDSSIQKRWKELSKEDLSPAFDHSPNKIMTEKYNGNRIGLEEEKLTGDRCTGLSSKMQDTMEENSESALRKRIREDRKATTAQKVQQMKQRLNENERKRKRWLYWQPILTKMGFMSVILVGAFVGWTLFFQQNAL
Briefly: phosphatase inhibition assay (protocol printed for PTP1B: pNPP, […] nm). Type of assay: biochemical. On the set-up: gene PTPN2; isolated enzyme.

Assay [5] addresses T3, acidic phosphatase (ACP1) (Homo sapiens, UniProt P24666).
T3 construct: isolated enzyme
T3 sequence (P24666 2-158): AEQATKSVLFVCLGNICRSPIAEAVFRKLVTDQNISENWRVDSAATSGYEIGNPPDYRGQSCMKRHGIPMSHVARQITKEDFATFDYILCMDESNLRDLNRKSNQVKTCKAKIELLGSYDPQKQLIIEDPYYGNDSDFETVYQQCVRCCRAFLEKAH
The description is as above. Conditions: conditions not stated separately for ACP1. Type of assay: biochemical.

Assay [6] deals with T2, TCPTP. Nature of the assay: cellular thermal shift assay (CETSA), Western blot. Type of assay: cell-based. On the set-up: gene PTPN2; endogenous protein in AC16 human cardiomyocytes, detected by Western blot (antibody 11214-1-AP). The note with it: AC16 cells.

As to `CO/N=C(\C(=O)N[C@@H]1C(=O)N2C(C(=O)O)=C(CSc3nc(=O)c(O)nn3C)CS[C@H]12)c1csc(N)n1` [PI-1], in assay [1], the “inhibitory rate at 20 μM” value is “compounds PI-1, PI-2 and PI-7 displayed a moderate to potent inhibitory activity against PTP1B”.
Take `O=C(O)COCC(=O)Nc1cc(SCC(O)CO)cc([N+](=O)[O-])c1` (centres unmarked) [PI-7]: in assay [1], the “inhibitory rate at 20 μM” value was “compounds PI-1, PI-2 and PI-7 displayed a moderate to potent inhibitory activity against PTP1B”.
A word on the IC50: it is the concentration that gives 50% inhibition. Read a low IC50 as higher potency. Consider `N#C/C(=C\c1ccc(OCC(=O)O)cc1)c1nc2ccccc2[nH]1` [PI-2], for which the IC50 in assay [2] is 4.1 ± 0.3 µM; in assay [4], 5.9 ± 2.4 µM; in assay [5], > 20 µM. The CETSA stabilisation entry in assay [3] was “PI-2 could effectively enhance the PTP1B and TCPTP stability in vitro”; in assay [6], “PI-2 could effectively enhance the PTP1B and TCPTP stability in vitro”. Also, in assay [1], the “inhibitory rate at 20 μM” value turned out to be 95.6%.
